# Experimental data: patent US6890950B2, “Lapachone delivery systems, compositions and uses related thereto” (priority 2002, dated 2005)
# Several values for one entry are separate records, joined by “and”; a condition that tells them apart may be missing. Equal entries are not always repeated. Entries after “also recorded” stand apart in the source; their conditions may differ.
# How the values were obtained:
# [1] = phase solubility studies of β-lap with cyclodextrins; type: physicochemical
# Protocol: Solubility studies were performed by adding excess amount of β-lap to a series of PBS buffer that contain different concentrations of each CD molecule ranging from zero to its solubility limit (see Table 1 for the solubility limit of each CD molecule). A schematic diagram of the intermolecular interactions and their effect on solubility is provided as FIG. 1. The suspensions were stirred at 25° C. until dissolution equilibrium was reached. […] Phase solubility diagram for each CD was obtained by plotting the β-lap solubility at dissolution equilibrium as a function of the CD concentration.
# [2] = tested on: LNCaP vector alone clones; test: apoptosis in transfected LNCaP clones; type: cell-based, human; conditions: 10 μM β-lap
# Text: (§1) LNCaP cells were transfected with either pcDNA3 empty vector or pcDNA3 containing full-length NQO1 cDNA.
# [3] = tested on: PC-3; test: TUNEL apoptosis assay; type: cell-based, human; conditions: 10 μM, 4h, TUNEL 48h
# [4] = tested on: A549 NSCLC cells; test: survival and apoptosis (PARP cleavage) of NSCLC cells; type: cell-based, human; conditions: 8 μM β-lap, 4 h
# Text: NQO1-dependent apoptosis of A549 or CC-10 NSCLC cells by β-lap.
# [5] = tested on: Lewis lung carcinoma (LLC); type: cell-based; conditions: 4 μM, 4 h
# Text: (§2) PARP cleavage to a 60 kDa fragment and specific p53 proteolysis are diagnostic for β-lap-induced μ-calpain-mediated apoptosis.
# [6] = tested on: L1C2 cells; type: cell-based; conditions: 4 μM, 4 h
# Text: as §2
# [7] = solubility of β-lap in PBS (orbital shaker, UV-Vis); type: physicochemical; conditions: 37° C.
# Protocol: Fabrication of β-lap-loaded polymer millirods. The extremely low solubility of β-lap in water has greatly limited the clinical use of this compound. The development of drug-impregnated millirods, wherein β-lap release kinetics may be accurately permits the delivery of an efficacious form of therapy against human prostate tumors that commonly over-express the NQO1 oxidoreductase. The extinction coefficient for β-lap in water was determined to be 2.6×10^4 cm^−1M^−1 at 257 nm wavelength by UV-V is spectrophotometry. Solubility experiments were performed by immersing β-lap in PBS over a period of six days in an orbital shaker at 37° C. At the start of the experiment the drug suspension was sonicated for 20 seconds to facilitate the fast reach of solubility equilibrium. Samples were taken and filtered by 0.2 μm Millipore filters via syringe to remove non-dissolved drug particles and diluted to accommodate the UV-V is sensitive range before collecting absorbance data. […] This concentration is too low for i.v. administration in clinical applications. […] Polymer millirods were fabricated using a compression heat molding procedure as previously developed in our lab. (Halpert, B., Sheehan, E. and Schmalhorst, W. (1998) Cancer 82, 737-742.) Briefly, β-lap particles were mixed with polymer microspheres (4 μm) and various concentrations of glucose. […]
# [8] = tested on: LNCaP; test: TUNEL apoptosis assay; type: cell-based, human; conditions: for Apoptosis (%) After Drug Treatment: 10 μM, 4h
# [9] = tested on: human cancer cells; conditions: variety of human cancer cells; read-out: antitumor activity (IC50); cited from earlier work
# [10] = tested on: DU-145; test: TUNEL apoptosis assay; type: cell-based, human; conditions: 10 μM, 4h, TUNEL 48h
# [11] = tested on: C57Blk/6 mice; test: animal toxicity study (morbidity and mortality); type: in vivo, mouse; conditions: HPβ-CD inclusion complex vs Cremophor vehicle, from LD50
# Protocol: C57Blk/6 female mice (3-4 week-old, 18-20 g) (Jackson Labs, Me.) were used to study the morbidity and mortality of mice treated with HPβ-CD.β-lap inclusion complex. Four mice per group were used for each dose, which varied from 20 to 100 mg/kg. […] Mice were injected (i.p.) every Monday, Wednesday and Friday for three weeks for a total of 10 injections. Control animals (4 mice/group) were injected with 5000 mg/kg of HPβ-CD alone to evaluate its toxicity. This HPβ-CD dose is approximately ten times of the HPβ-CD amount introduced at the highest dose of β-lap (100 mg/kg) via the HPβ-CD.β-lap inclusion complex. The higher dose of HPβ-CD was used to ensure the lack of toxicity of this compound. Weight and lethality were measured on a daily basis following initial drug administration. All animals were maintained in a facility accredited by the Association for Assessment and Accreditation of Laboratory Animal Care according to the “Principles of Laboratory Animal Care” of the National Institutes of Health.
# [12] = tested on: NQO1-containing LNCaP clones; test: colony forming ability assays; type: cell-based, human; conditions: 4-h pulses
# Protocol: FIG. 14. […] Colony forming ability assays (CFAs) were performed three times, each in triplicate.
# as §1
# [13] = tested on: MDA-MB-468 NQO1+ human breast cancer xenografts; test: antitumor activity against xenografts; type: in vivo, athymic nude mice; conditions: for antitumor activity: 55-70 mg/kg i.p. every other day
# Protocol: Athymic nude mice bearing […] tumors were treated with the indicated mg/mk doses of β-lap i.p. every other day, beginning at day 26.
# When tumor volumes reached 20-30 mm^3 (at day 26), mice were then treated (by intraperitoneal injection) every other day with the indicated doses (in mg/kg) of β-lap (55-70 mg/kg were tested). […] Multiple cycles of treatments are now being tested, as are various dose regimen and scheduling protocols.
# [14] = tested on: NQO1+ LNCaP NQCl2 cells; test: radiosensitization, clonogenic survival; type: cell-based, human; conditions: β-lap given 4 h post-IR
# Protocol: (§3) FIG. 15. […] Changes in colony forming ability. In A, pcDNA3-vector alone cells were tested. In B, same as A, except that NQO1^+ LNCaP cells were used.
# (§4) To answer the question of whether NQO1 levels must be induced for β-lap radiosensitization, we examined NQO1^+ LNCaP NQC12 v. NQO1^− LNCaP-pcDNA3 vector alone cells for differences in radiosensitization by various concentrations of β-lap, given 4 h post-IR (FIG. 15).
# [15] = tested on: NQO1− LNCaP cells; test: radiosensitization, clonogenic survival; type: cell-based, human
# Protocol: as §3, §4
structure (smiles),measurement,setting,value
"CC1(C)CCC2=C(O1)c1ccccc1C(=O)C2=O [β-lap, β-Lapachone]",increase of β-lap solubility in HPβ-CD over that in β-CD vehicle,[1],24 fold
same,maximal solubility of β-lap in HPβ-CD solution,"[1]; HPβ-CD solution, PBS, 25° C.",66.0 mM and 16.0 mg/ml
same,water solubility of β-lap,[1]; water,0.16 mM and 0.04 mg/ml
same,maximal solubility of β-lap in β-CD solution,"[1]; β-CD solution, PBS, 25° C.",2.8 mM and 0.68 mg/ml
same,apoptosis,[2],< 5%
same,Apoptosis (%) After Drug Treatment,[3]; PC-3 + DC (50 μM dicoumarol),0.04%
same,Apoptosis (%) After Drug Treatment,[3]; PC-3 + DVED,91%
same,Apoptosis (%) After Drug Treatment,[3]; PC-3,82%
same,lethality and apoptosis,[4],caused lethality and apoptosis
same,sensitivity to β-lap,[5],extremely sensitive
same,sensitivity to β-lap,[6],extremely sensitive
same,solubility of β-lap in PBS buffer,[7],2.6×10^−4 M and 0.05 mg/cc
same,Apoptosis (%) After Drug Treatment,"[8]; LNCaP + DC (50 μM dicoumarol), TUNEL 48h",28%
same,Apoptosis (%) After Drug Treatment,"[8]; LNCaP + DVED, TUNEL 48h",24%
same,Apoptosis (%) After Drug Treatment,"[8]; LNCaP, TUNEL 48h post-treatment",28%
same,less apoptosis than DU-145 or PC-3 cells,[8]; β-lap-treated LNCaP,3 fold
same,IC50,[9],1 to 10 µM
same,Apoptosis (%) After Drug Treatment,[10]; DU-145 + DC (50 μM dicoumarol),0.12%
same,Apoptosis (%) After Drug Treatment,[10]; DU-145 + DVED,76%
same,Apoptosis (%) After Drug Treatment,[10]; DU-145,71%
same,greater bioavailability in vivo compared to previous studies,[11],~3 fold
same,sensitivity compared to NQO1-deficient LN-pcDNA3 vector alone cells,[12],significantly more sensitive
same,antitumor activity,[13],significant antitumor responses; also recorded: Significant antitumor activity
same,antitumor activity,[13]; listed as β-Lap,significant antitumor activity
same,antitumor responses,"[13]; 65 and 70 mg/kg i.p. every other day, 10 doses",Significant antitumor responses
same,radiosensitization,[14],radiosensitized
same,radiosensitization,[15],not sensitized
